Reference: the supplement of paper PMC10331698
± gives the standard deviation of the averaged measurements.

Experiments:
Test in all cases: level (log10 ratio to DMSO vehicle control); higher = higher biomarker level / cell amount than vehicle control
Details in all cases: in DMSO
[1] = compound: C=CC(F)(F)C(F)(F)C(F)(F)C(F)(F)C(F)(F)C(F)(F)C(F)(F)C(F)(F)C=C [1,8-Divinylperfluorooctane]
Procedure: (§1)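 BioMAP Diversity Plus panel of 12 human primary cell co-culture systems (3C, 4H, LPS, SAg, BT, BF4T, BE3C, CASM3C, HDF3CGF, KF3CT, MyoF, Mphg). Compounds were added 1 h before stimulation and left for 24 h (MyoF 48 h; BT 72 h for soluble read-outs or 6 d for IgG). Biomarkers were read by ELISA, cytotoxicity by SRB, PBMC viability and proliferation by Alamar Blue. Each well value was divided by the mean of 8 DMSO control wells on the same plate and log10 transformed; duplicate blinded samples were tested at 4 concentrations.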

[2] = compound: OCCC(F)(F)C(F)(F)C(F)(F)C(F)(F)C(F)(F)C(F)(F)F [6:2 Fluorotelomer alcohol]
Procedure: as §1

[3] = compound: FC(F)C(F)(F)COCC1CO1 [((2,2,3,3-Tetrafluoropropoxy)methyl)oxirane]
Procedure: as §1

[4] = compound: O=C(O)C(F)(F)C(F)(F)C(F)(F)C(F)(F)C(F)(F)C(F)(F)C(F)(F)C(F)F [9-H-Perfluorononanoic acid]
Procedure: as §1

[5] = compound: O=C(O)C(F)(F)OC(F)(F)C(F)(F)OC(F)(F)F [Perfluoro-3,6-dioxaheptanoic acid]
Procedure: as §1

[6] = compound: O=C(O)C(F)(F)OC(F)(F)C(F)(F)OC(F)(F)C(=O)O [Perfluoro-3,6-dioxaoctane-1,8-dioic acid]
Procedure: as §1

Test System	level (log10) ([1]; 6700 nM)	level (log10) ([1]; 20000 nM)	level (log10) ([2]; 6700 nM)	level (log10) ([2]; 20000 nM)	level (log10) ([3]; 6700 nM)	level (log10) ([3]; 20000 nM)	level (log10) ([3]; 60000 nM)	level (log10) ([4]; 6700 nM)	level (log10) ([4]; 20000 nM)	level (log10) ([4]; 60000 nM)	level (log10) ([5]; 6700 nM)	level (log10) ([5]; 20000 nM)	level (log10) ([5]; 60000 nM)	level (log10) ([6]; 6700 nM)	level (log10) ([6]; 20000 nM)	level (log10) ([6]; 60000 nM)
SAg:CD62E/E-Selectin	-0.0205 ± 0.012	-0.0195 ± 0.005	-0.0015 ± 0.0092	0.002 ± 0.027	0.0075 ± 0.018	-0.002 ± 0.023	0.009 ± 0.047	-0.015 ± 0.013	-0.0075 ± 0.013	0.065 ± 0.031	-0.0015 ± 0.0021	0.001 ± 0.0042	0.021 ± 0.0057	0.007 ± 0.0085	0.011 ± 0.0028	0.011 ± 0.021
4H:VEGFR2	-0.0065 ± 0.056	0.053 ± 0.0085	-0.058 ± 0.024	-0.072 ± 0.078	0.0095 ± 0.04	0.0065 ± 0.033	-0.0085 ± 0.026	0.0105 ± 0.037	0.001 ± 0.027	0.051 ± 0.0099	-0.035 ± 0.0099	-0.009 ± 0.048	-0.013 ± 0.0071	-0.045 ± 0.016	-0.06 ± 0.011	-0.016 ± 0.047
BF4T:PAI-I	-0.01 ± 0.0057	0.0055 ± 0.0064	0.013 ± 0.013	0.011 ± 0.0099	-0.0075 ± 0.00071	-0.011 ± 0.0028	0.0105 ± 0.026	-0.099 ± 0.0028	-0.0915 ± 0.0021	-0.114 ± 0.0099	-0.0215 ± 0.019	-0.018 ± 0.033	-0.002 ± 0.011	0.0085 ± 0.013	0.007 ± 0.0099	0.0095 ± 0.012
LPS:sTNF-alpha	0.055 ± 0.016	0.035 ± 0.035	-0.0335 ± 0.17	-0.016 ± 0.16	0.0135 ± 0.0021	0.015 ± 0.013	0.0175 ± 0.0021	-0.0145 ± 0.012	-0.0055 ± 0.016	-0.0115 ± 0.019	-0.012 ± 0.027	-0.0265 ± 0.023	-0.0205 ± 0.005	-0.012 ± 0.057	0.0145 ± 0.063	0.0445 ± 0.059
SAg:CD69	-0.042 ± 0.021	-0.012 ± 0.035	0.012 ± 0.025	-0.012 ± 0.016	-0.0225 ± 0.0078	-0.018 ± 0.014	0 ± 0.03	-0.0335 ± 0.025	-0.034 ± 0.0085	-0.0245 ± 0.00071	-0.024 ± 0.0085	-0.013 ± 0.014	-0.029 ± 0.0028	0.0045 ± 0.0021	0.007 ± 0.0057	0 ± 0.0014
BF4T:CCL26/Eotaxin-3	-0.0405 ± 0.019	-0.0355 ± 0.013	-0.0055 ± 0.15	-0.023 ± 0.081	0.005 ± 0.033	0.0055 ± 0.052	0.031 ± 0.05	-0.174 ± 0.028	-0.198 ± 0.049	-0.147 ± 0.0071	-0.039 ± 0.048	-0.0195 ± 0.021	-0.0615 ± 0.1	-0.048 ± 0.059	-0.037 ± 0.033	0.0145 ± 0.11
SAg:Proliferation	0.0155 ± 0.0064	0.0455 ± 0.013	-0.015 ± 0.027	-0.024 ± 0.013	-0.0075 ± 0.019	-0.02 ± 0.03	-0.0095 ± 0.0092	0.052 ± 0.065	0.0735 ± 0.037	0.048 ± 0.095	-0.023 ± 0.061	-0.005 ± 0.025	0.0115 ± 0.04	-0.017 ± 0.05	-0.011 ± 0.035	-0.0085 ± 0.021
BE3C:EGFR	-0.0015 ± 0.022	-0.006	0.004 ± 0.051	-0.0025 ± 0.049	0.002 ± 0.0071	-0.021 ± 0.021	-0.0145 ± 0.012	-0.028 ± 0.0099	-0.022 ± 0.021	-0.0425 ± 0.023	-0.0185 ± 0.012	0.003 ± 0.021	0.007 ± 0.02	0.0115 ± 0.015	0.005 ± 0.021	0.0195 ± 0.077
3C:CXCL8/IL-8	-0.023 ± 0.018	0.011 ± 0.034	-0.001 ± 0.0085	-0.0105 ± 0.0092	-0.0255 ± 0.005	-0.0275 ± 0.0021	0.003 ± 0.042	-0.0115 ± 0.011	0.015 ± 0.0057	0.0765 ± 0.005	0.0235 ± 0.012	0.002 ± 0.035	0.0825 ± 0.074	-0.015 ± 0.051	-0.013 ± 0.034	-0.007 ± 0.059
BF4T:MMP-3	0.021 ± 0.016	0.0005 ± 0.005	-0.004 ± 0.0042	-0.0055 ± 0.0035	0.0015 ± 0.00071	-0.0115 ± 0.026	0.0205 ± 0.059	-0.0115 ± 0.03	-0.0025 ± 0.00071	0.075 ± 0.0071	-0.0065 ± 0.029	-0.0075 ± 0.025	0.0065 ± 0.0078	-0.001 ± 0.0028	-0.004 ± 0.0028	0.031 ± 0.025
BT:Secreted IgG	0.022 ± 0.0071	0.0255 ± 0.019	0.02	0.0195 ± 0.0035	0.0295 ± 0.047	-0.003 ± 0.071	-0.0065 ± 0.098	0.038 ± 0.0071	-0.011 ± 0.031	0.0485 ± 0.019	0.003 ± 0.016	-0.016 ± 0.018	-0.018 ± 0.0057	0.032 ± 0.025	0.0095 ± 0.005	-0.0365 ± 0.036
BF4T:CD54/ICAM-1	-0.0115 ± 0.021	-0.0095 ± 0.022	-0.004 ± 0.0014	-0.0025 ± 0.011	-0.005 ± 0.0099	-0.0065 ± 0.0064	-0.002 ± 0.0057	-0.0775 ± 0.0092	-0.088 ± 0.0028	-0.0795 ± 0.00071	0.0115 ± 0.005	-0.009 ± 0.0028	-0.012 ± 0.0071	-0.0025 ± 0.018	-0.007 ± 0.0057	0.012 ± 0.027
BF4T:MMP-1	-0.0045 ± 0.005	0.0135 ± 0.035	0.0065 ± 0.005	0.014 ± 0.021	0.016 ± 0.0085	0.007 ± 0.02	0.03 ± 0.021	0.005 ± 0.021	-0.0075 ± 0.039	0.0925 ± 0.00071	-0.0125 ± 0.025	-0.004 ± 0.028	-0.001 ± 0.013	0.0075 ± 0.0064	0.007 ± 0.027	0.0185 ± 0.032
BT:sIL-2	0.014 ± 0.035	0.022 ± 0.05	-0.008 ± 0.057	-0.0135 ± 0.019	0.084 ± 0.067	-0.005 ± 0.067	0.017 ± 0.13	-0.0245 ± 0.057	0.006 ± 0.05	0.0195 ± 0.032	0.0035 ± 0.053	0.0105 ± 0.11	0.01 ± 0.072	0.004 ± 0.027	-0.017 ± 0.05	-0.002 ± 0.041
BT:sIL-17A	-0.0055 ± 0.026	0.0625 ± 0.079	0.0375 ± 0.015	-0.0005 ± 0.11	0.0715 ± 0.032	-0.008 ± 0.064	-0.115 ± 0.03	0.0095 ± 0.087	-0.02 ± 0.024	-0.126 ± 0.0099	-0.0275 ± 0.093	-0.102 ± 0.26	-0.155 ± 0.16	-0.0535 ± 0.049	0.154 ± 0.19	0.0055 ± 0.047
LPS:CD69	-0.0135 ± 0.011	-0.008 ± 0.014	-0.006 ± 0.04	0	0.0005 ± 0.022	-0.003 ± 0.0014	0.012 ± 0.041	-0.018 ± 0.0028	-0.0275 ± 0.039	-0.0575 ± 0.0035	-0.0125 ± 0.0064	-0.044 ± 0.035	-0.0165 ± 0.019	-0.004 ± 0.0071	0.003 ± 0.017	0.0165 ± 0.022
